Reference: ChEMBL document CHEMBL1641553, “Antimalarials based on the dioxane scaffold of plakortin. A concise synthesis and SAR studies” (Bioorg Med Chem, 2011)

What was measured:
Plasmodium falciparum [1] = assay: Antimalarial activity against chloroquine-sensitive Plasmodium falciparum D10 infected in human A-positive red blood cells after 72 hrs by lactate dehydrogenase assay; assay type: functional, organism-based; conditions: D10, 72 h
Plasmodium falciparum [2] = assay: Antimalarial activity against chloroquine-resistant Plasmodium falciparum W2 infected in human A-positive red blood cells after 72 hrs by lactate dehydrogenase assay; assay type: functional, organism-based; conditions: W2, 72 h

| SMILES | IC50 (Plasmodium falciparum [1]) [µM] | IC50 (Plasmodium falciparum [2]) [µM] |
| --- | --- | --- |
| CCCCC[C@@H]1OO[C@H](CC(=O)OCC)[C@H]2O[C@H]21 | 22.1 | 10.3 |
| CCCCC[C@@H]1OO[C@H](CC(=O)OCC)[C@@H]2O[C@@H]21 | > 30 | > 30 |
| CCCCC[C@H]1C=C[C@@H](CC(=O)O)OO1 | 3.33 | 3.42 |
| CCCCC[C@H]1C=C[C@@H](CCO)OO1 | > 30 | > 30 |
| CCCCC[C@@H]1OO[C@H](CC(=O)OCC)[C@@H](O)[C@H]1O | > 30 | > 30 |
| CCCCC[C@H]1C=C[C@@H](CC(=O)OCC)OO1 | 1.2 | 1.49 |
| CCCCC[C@@H]1OO[C@H](CC(=O)OCC)[C@@H](Br)[C@@H]1Br | 8.15 | 5.11 |
| CCCCC[C@@H]1OO[C@H](CC(=O)OCC)[C@H](Br)[C@H]1Br | 9.12 | 5.65 |
| CCCCC[C@H]1C=C[C@@H](CCOC(C)=O)OO1 | 21.9 | 12.5 |
| CCCCC[C@H](O)/C=C\[C@@H](CC(=O)OCC)OCCCC | > 30 | > 30 |
| CCCCCC/C=C/C=O [2-NONENAL] | 0.87 | 0.39 |
| CCCCCC/C=C/C=C/C(=O)OCC | 0.9 | 0.43 |
